Measured values from paper PMC7840908 (Communications Biology, 2021).
Values joined by “and” are separate entries in the source; they are usually repeats but may differ in a detail not shown here. Identical values can stand only once.

Legend:
Assay type in all cases: binding
[1] = molecular target: T1, MERS-CoV macro domain (Middle East respiratory syndrome-related coronavirus, UniProt K9N638)
[2] = molecular target: T1, MERS-CoV macro domain; remark: listed apart in the source
[3] = molecular target: T1, MERS-CoV macro domain; remark: listed apart in the source
[4] = molecular target: T1, MERS-CoV macro domain; remark: listed apart in the source

T1 sequence (K9N638 1110-1276 limits assumed): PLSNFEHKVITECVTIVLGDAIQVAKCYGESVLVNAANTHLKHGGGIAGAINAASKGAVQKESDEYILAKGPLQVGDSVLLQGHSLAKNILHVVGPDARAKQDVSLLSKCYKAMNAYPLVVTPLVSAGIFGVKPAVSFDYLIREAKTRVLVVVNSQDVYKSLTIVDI

Nc1ncnc2c1ncn2[C@@H]1O[C@H](COP(=O)(O)OP(=O)(O)OP(=O)(O)O)[C@@H](O)[C@H]1O [ATP, adenosine triphosphate]
n (stoichiometry of binding) [1]: 1.28 ± 0.23
ΔH [1]: -0.103 ± 0.0621 kcal/mol
−TΔS [1]: -4.725 ± 0.115 kcal/mol
NMR CSP, residue 4 [2]: 0.02128 and 0.03079
NMR CSP, residue 8 [2]: 0.08407 and 0.1389
NMR CSP, residue 11 [2]: 0.01204 and 0.01003
NMR CSP, residue 12 [2]: 0.02593 and 0.01302
NMR CSP, residue 13 [2]: 0.02822 and 0.05324
NMR CSP, residue 15 [2]: 0.05255 and 0.08443
NMR CSP, residue 16 [2]: 0.08559 and 0.1065
NMR CSP, residue 19 [2]: 0.2213 and 0.3991
NMR CSP, residue 20 [2]: 0.5582 and 0.5971
NMR CSP, residue 24 [2]: 0.02113 and 0.02272
NMR CSP, residue 27 [2]: 0.04023 and 0.04654
NMR CSP, residue 31 [2]: 0.01765 and 0.03281
NMR CSP, residue 32 [2]: 0.03557 and 0.06867
NMR CSP, residue 33 [2]: 0.003317 and 0.005514
NMR CSP, residue 35 [2]: 0.08722 and 0.0586
NMR CSP, residue 41 [2]: 0.07865 and 0.1421
NMR CSP, residue 42 [2]: 0.02022 and 0.03875
NMR CSP, residue 44 [2]: 0.117 and 0.1567
NMR CSP, residue 46 [2]: 0.2082 and 0.117
NMR CSP, residue 49 [2]: 0.1963 and 0.3148
NMR CSP, residue 52 [2]: 0.1171 and 0.2037
NMR CSP, residue 53 [2]: 0.06017 and 0.08476
NMR CSP, residue 54 [2]: 0.04378 and 0.08204
NMR CSP, residue 55 [2]: 0.03609 and 0.04139
NMR CSP, residue 56 [2]: 0.1144
NMR CSP, residue 59 [2]: 0.1073 and 0.0995
NMR CSP, residue 64 [2]: 0.02081 and 0.02918
NMR CSP, residue 67 [2]: 0.009187 and 0.006075
NMR CSP, residue 68 [2]: 0.007457 and 0.01342
NMR CSP, residue 69 [2]: 0.006641 and 0.01241
NMR CSP, residue 70 [2]: 0.007029 and 0.01308
NMR CSP, residue 74 [2]: 0.01357 and 0.01451
NMR CSP, residue 76 [2]: 0.1087 and 0.1584
NMR CSP, residue 79 [2]: 0.06062 and 0.09243
NMR CSP, residue 80 [2]: 0.02546 and 0.0359
NMR CSP, residue 82 [2]: 0.03386 and 0.028
NMR CSP, residue 88 [2]: 0.01281 and 0.02472
NMR CSP, residue 91 [2]: 0.02979 and 0.05588
NMR CSP, residue 92 [2]: 0.05948 and 0.09574
NMR CSP, residue 98 [2]: 0.08735 and 0.113
NMR CSP, residue 99 [2]: 0.04875 and 0.06519
NMR CSP, residue 101 [2]: 0.01539 and 0.022
NMR CSP, residue 102 [2]: 0.003066
NMR CSP, residue 104 [2]: 0.03263 and 0.04354
NMR CSP, residue 105 [2]: 0.0458 and 0.08781
NMR CSP, residue 108 [2]: 0.03048 and 0.01721
NMR CSP, residue 109 [2]: 0.0202 and 0.03155
NMR CSP, residue 111 [2]: 0.0136 and 0.02579
NMR CSP, residue 113 [2]: 0.02518 and 0.03785
NMR CSP, residue 117 [2]: 0.02758 and 0.03325
NMR CSP, residue 119 [2]: 0.05435 and 0.04262
NMR CSP, residue 122 [2]: 0.04092 and 0.06158
NMR CSP, residue 125 [2]: 0.4401 and 0.7457
NMR CSP, residue 126 [2]: 0.163 and 0.2535
NMR CSP, residue 131 [2]: 0.1039 and 0.07453
NMR CSP, residue 132 [2]: 0.1244 and 0.1155
NMR CSP, residue 135 [2]: 0.05654 and 0.08994
NMR CSP, residue 136 [2]: 0.05575 and 0.07379
NMR CSP, residue 138 [2]: 0.04766 and 0.08654
NMR CSP, residue 139 [2]: 0.05001 and 0.03334
NMR CSP, residue 140 [2]: 0.07046 and 0.09693
NMR CSP, residue 144 [2]: 0.02987 and 0.05222
NMR CSP, residue 148 [2]: 0.04492 and 0.05905
NMR CSP, residue 149 [2]: 0.04139 and 0.04999
NMR CSP, residue 151 [2]: 0.03194 and 0.04624
NMR CSP, residue 152 [2]: 0.2468
NMR CSP, residue 153 [2]: 0.1157 and 0.09952
NMR CSP, residue 155 [2]: 0.2226 and 0.3418
NMR CSP, residue 156 [2]: 0.03888
NMR CSP, residue 158 [2]: 0.03042 and 0.04983
NMR CSP, residue 159 [2]: 0.008826 and 0.007483
NMR CSP, residue 161 [2]: 0.02817 and 0.01678
NMR CSP, residue 164 [2]: 0.03315 and 0.0552
Melting temperature (Tm) of the MERS-CoV macro domain in complex, CD [3]: 44.4 °C
Melting temperature (Tm) of the MERS-CoV macro domain in complex, DSF [4]: 43.0 °C

Nc1ncnc2c1ncn2[C@@H]1O[C@H](COP(=O)(O)OP(=O)(O)O)[C@@H](O)[C@H]1O [ADP, adenosine diphosphate]
n (stoichiometry of binding) [1]: 1.08 ± 0.06
ΔH [1]: -3.85 ± 1.8 kcal/mol
−TΔS [1]: -1.86 ± 1.51 kcal/mol
NMR CSP, residue 11 [2]: 0.01279 and 0.006701
NMR CSP, residue 29 [2]: 0.01328 and 0.01691
NMR CSP, residue 36 [2]: 0.05057
NMR CSP, residue 37 [2]: 0.07911
NMR CSP, residue 46 [2]: 0.3834
NMR CSP, residue 47 [2]: 0.05654 and 0.03639
NMR CSP, residue 48 [2]: 0.08159 and 0.1212
NMR CSP, residue 67 [2]: 0.0178 and 0.009143
NMR CSP, residue 75 [2]: 0.05887 and 0.06181
NMR CSP, residue 94 [2]: 0.1393
NMR CSP, residue 101 [2]: 0.03691 and 0.02294
NMR CSP, residue 125 [2]: 0.08579
NMR CSP, residue 130 [2]: 0.08457 and 0.1167
NMR CSP, residue 132 [2]: 0.01774 and 0.01343
NMR CSP, residue 149 [2]: 0.01454
NMR CSP, residue 154 [2]: 0.08237
NMR CSP, residue 156 [2]: 0.2276
Melting temperature (Tm) of the MERS-CoV macro domain in complex, CD [3]: 43.7 °C
Melting temperature (Tm) of the MERS-CoV macro domain in complex, DSF [4]: 44.5 °C
